According to patent US10897915B2, “Method for making coffee products containing cannabis ingredients” (Blacklist Holdings, Inc., priority 2014, dated 2021):

Tests used:
[1] = Coffee mug cross section analysis of brewed cup, 1:10 oil/TM mix underneath the filter; format: physicochemical; conditions: 1:10 oil/TM mix underneath filter
Procedure: This example investigated how THC was interacting with the coffee mug after it had been brewed. A cup of coffee was brewed with the 1:10 oil/TM mix placed in the K-Cup underneath the filter containing coffee grounds.
Two separate aliquots were taken from the cup (top and middle), and then coffee was carefully poured out. Methanol was added to the cup and the oil that had condensed to the sides of the cup was dissolved and quantified.

[2] = cited from earlier work

CCCCCc1cc(O)c2c(c1)OC(C)(C)[C@@H]1CCC(C)=C[C@@H]21 [THC, delta-9-tetrahydrocannabinol]
THC found in the oily coffee film at the top of the cup [1]: 20-25%
THC in the coffee [1]: approximately 60%
THC lost (unknown cause) [1]: 20%
THC in a 200 mL cup of coffee at aqueous solubility [2]: 0.6 mg
